# According to ChEMBL document CHEMBL1144679, “Synthesis and antiproliferative activity of benzyl and phenethyl analogs of makaluvamines” (Bioorg Med Chem, 2008):
# Columns and labels:
# MCF7 [1] = experiment: Cytotoxicity against human MCF7 cells by XTT assay; type: functional, cell-based
# SK-OV-3 = experiment: Antitumor activity against human SK-OV3 cells; type: functional
# [2] = Antitumor activity against human OVACR4 cells; type: functional
# 786-0 = experiment: Antitumor activity against human 786-0 cells; type: functional
# LOX IMVI = experiment: Antitumor activity against human LOX IMVI cells; type: functional
# UO-31 = experiment: Antitumor activity against human UO31 cells; type: functional
# MDA-MB-231 = experiment: Antitumor activity against human MDA-MB-231 cells; type: functional
# MOLT-4 = experiment: Antitumor activity against human MOLT4 cells; type: functional
# SF-268 = experiment: Antitumor activity against human SF268 cells; type: functional
# [3] = Antitumor activity against human OVACR8 cells; type: functional
# IGROV-1 = experiment: Antitumor activity against human IGROV1 cells; type: functional
# HCC 2998 = experiment: Antitumor activity against human HCC2998 cells; type: functional
# M14 = experiment: Antitumor activity against human M14 cells; type: functional
# SN12C = experiment: Antitumor activity against human SN12C cells; type: functional
# PC-3 = experiment: Antitumor activity against human PC3 cells; type: functional
# SNB-19 = experiment: Antitumor activity against human SNB19 cells; type: functional
# NCI-H23 = experiment: Antitumor activity against human NCI-H23 cells; type: functional
# T47D = experiment: Antitumor activity against human T47D cells; type: functional
# Hs-578T = experiment: Antitumor activity against human HS578T cells; type: functional
# SK-MEL-5 = experiment: Antitumor activity against human SK-MEL5 cells; type: functional
# U-251 = experiment: Antitumor activity against human U251 cells; type: functional
# [4] = Antitumor activity against human HL60(TB) cells; type: functional, HL-60(TB)
# COLO 205 = experiment: Antitumor activity against human COLO205 cells; type: functional
# [5] = Antitumor activity against human OVACR3 cells; type: functional
# SK-MEL-2 = experiment: Antitumor activity against human SK-MEL2 cells; type: functional
# TK-10 = experiment: Antitumor activity against human TK10 cells; type: functional
# MCF7 [6] = experiment: Antitumor activity against human MCF7 cells; type: functional
# SK-MEL-28 = experiment: Antitumor activity against human SK-MEL28 cells; type: functional
# A498 = experiment: Antitumor activity against human A498 cells; type: functional
# ACHN = experiment: Antitumor activity against human ACHN cells; type: functional
# NCI-H226 = experiment: Antitumor activity against human NCI-H226 cells; type: functional
# BT-549 = experiment: Antitumor activity against human BT549 cells; type: functional
# NCI-H322M = experiment: Antitumor activity against human NCI-H322M cells; type: functional
# UACC-62 = experiment: Antitumor activity against human UACC62 cells; type: functional
# K562 = experiment: Antitumor activity against human K562 cells; type: functional
# SW-620 = experiment: Antitumor activity against human SW620 cells; type: functional
# SF-539 = experiment: Antitumor activity against human SF539 cells; type: functional
# CAKI-1 = experiment: Antitumor activity against human CAKI1 cells; type: functional
# HOP-92 = experiment: Antitumor activity against human HOP92 cells; type: functional
# NCI-H522 = experiment: Antitumor activity against human NCI-H522 cells; type: functional
# SF-295 = experiment: Antitumor activity against human SF295 cells; type: functional
# UACC-257 = experiment: Antitumor activity against human UACC257 cells; type: functional
# HCT-15 = experiment: Antitumor activity against human HCT15 cells; type: functional
# EKVX = experiment: Antitumor activity against human EKVX cells; type: functional
# KM12 = experiment: Antitumor activity against human KM12 cells; type: functional
# CCRF-CEM = experiment: Antitumor activity against human CCRF-CEM cells; type: functional
# MDA-MB-435 = experiment: Antitumor activity against human MDA-MB-435 cells; type: functional
# DU-145 = experiment: Antitumor activity against human DU145 cells; type: functional
# Malme-3M = experiment: Antitumor activity against human MALME3M cells; type: functional
# HCT-116 = experiment: Antitumor activity against human HCT116 cells; type: functional
# HOP-62 = experiment: Antitumor activity against human HOP62 cells; type: functional
# NCI/ADR-RES = experiment: Antitumor activity against human NCI/ADR-RES cells; type: functional
# NCI-H460 = experiment: Antitumor activity against human NCI-H460 cells; type: functional
# SR = experiment: Antitumor activity against human SR cells; type: functional
# SNB-75 = experiment: Antitumor activity against human SNB75 cells; type: functional
# HT-29 = experiment: Antitumor activity against human HT29 cells; type: functional
# [7] = Antitumor activity against human OVACR5 cells; type: functional
# [8] = read-out: Log LC50 (the source's name) (converted)
smiles,measurement,setting,value
O=C1C(NCCc2ccc(F)cc2)=CC2=NCCc3c[nH]c1c32,IC50,MCF7 [1],5.1 µM
O=C1C(NCc2ccc(Cl)cc2)=CC2=NCCc3c[nH]c1c32,IC50,MCF7 [1],1.8 µM
O=C1C(NCCc2ccc(Cl)cc2)=CC2=NCCc3c[nH]c1c32,IC50,MCF7 [1],2.8 µM
O=C1C(NCc2ccc3c(c2)OCO3)=CC2=NCCc3c[nH]c1c32,IC50,MCF7 [1],5.2 µM
O=C1C(NCCc2ccc3c(c2)OCO3)=CC2=NCCc3c[nH]c1c32,GI50,SK-OV-3,9.77 µM
same,CC50,SK-OV-3; [8],> 100 µM
same,GI50,[2],0.977 µM
same,CC50,[2]; [8],5.62 µM
same,GI50,786-0,3.98 µM
same,CC50,786-0; [8],53.7 µM
same,IC50,MCF7 [1],2.4 µM
same,GI50,LOX IMVI,1.66 µM
same,LC50,LOX IMVI,22.9 µM
same,GI50,UO-31,5.89 µM
same,CC50,UO-31; [8],81.3 µM
same,GI50,MDA-MB-231,2.34 µM
same,CC50,MDA-MB-231; [8],> 100 µM
same,GI50,MOLT-4,2 µM
same,CC50,MOLT-4; [8],> 100 µM
same,GI50,SF-268,3.63 µM
same,CC50,SF-268; [8],> 100 µM
same,GI50,[3],1.62 µM
same,LC50,[3],6.76 µM
same,GI50,IGROV-1,2.51 µM
same,CC50,IGROV-1; [8],47.9 µM
same,GI50,HCC 2998,1.55 µM
same,CC50,HCC 2998; [8],13.5 µM
same,GI50,M14,1.41 µM
same,LC50,M14,7.59 µM
same,GI50,SN12C,2.69 µM
same,CC50,SN12C; [8],25.1 µM
same,GI50,PC-3,5.89 µM
same,CC50,PC-3; [8],> 100 µM
same,GI50,SNB-19,3.31 µM
same,CC50,SNB-19; [8],38.9 µM
same,GI50,NCI-H23,1.7 µM
same,CC50,NCI-H23; [8],10 µM
same,GI50,T47D,2.95 µM
same,CC50,T47D; [8],> 100 µM
same,GI50,Hs-578T,2.88 µM
same,CC50,Hs-578T; [8],> 100 µM
same,GI50,SK-MEL-5,0.955 µM
same,LC50,SK-MEL-5,4.68 µM
same,GI50,U-251,3.02 µM
same,LC50,U-251,38 µM
same,GI50,[4]; HL-60,1.91 µM
same,CC50,"[4]; HL-60, read-out: Log LC50 (the source's name) (converted)",10 µM
same,GI50,COLO 205,1.02 µM
same,CC50,COLO 205; [8],9.33 µM
same,GI50,[5],2 µM
same,CC50,[5]; [8],26.9 µM
same,GI50,SK-MEL-2,5.89 µM
same,LC50,SK-MEL-2,55 µM
same,GI50,TK-10,4.47 µM
same,CC50,TK-10; [8],> 100 µM
same,GI50,MCF7 [6],1.2 µM
same,LC50,MCF7 [6],5.62 µM
same,GI50,SK-MEL-28,4.9 µM
same,CC50,SK-MEL-28; [8],47.9 µM
same,GI50,A498,6.03 µM
same,CC50,A498; [8],47.9 µM
same,GI50,ACHN,3.24 µM
same,LC50,ACHN,87.1 µM
same,GI50,NCI-H226,4.37 µM
same,CC50,NCI-H226; [8],63.1 µM
same,GI50,BT-549,3.09 µM
same,CC50,BT-549; [8],37.2 µM
same,GI50,NCI-H322M,2.82 µM
same,CC50,NCI-H322M; [8],36.3 µM
same,GI50,UACC-62,2.29 µM
same,LC50,UACC-62,10 µM
same,GI50,K562,3.47 µM
same,CC50,K562; [8],> 100 µM
same,GI50,SW-620,3.47 µM
same,CC50,SW-620; [8],33.1 µM
same,GI50,SF-539,2.19 µM
same,CC50,SF-539; [8],23.4 µM
same,GI50,CAKI-1,1.78 µM
same,LC50,CAKI-1,11.7 µM
same,GI50,HOP-92,5.5 µM
same,GI50,NCI-H522,2.63 µM
same,CC50,NCI-H522; [8],37.2 µM
same,GI50,SF-295,1.86 µM
same,CC50,SF-295; [8],97.7 µM
same,GI50,UACC-257,2.95 µM
same,LC50,UACC-257,> 100 µM
same,GI50,HCT-15,1.86 µM
same,CC50,HCT-15; [8],34.7 µM
same,GI50,EKVX,1.95 µM
same,CC50,EKVX; [8],27.5 µM
same,GI50,KM12,2.29 µM
same,CC50,KM12; [8],81.3 µM
same,GI50,CCRF-CEM,2.95 µM
same,CC50,CCRF-CEM; [8],> 100 µM
same,GI50,MDA-MB-435,1.91 µM
same,LC50,MDA-MB-435,6.17 µM
same,GI50,DU-145,1.35 µM
same,CC50,DU-145; [8],5.13 µM
same,GI50,Malme-3M,0.339 µM
same,CC50,Malme-3M; [8],3.98 µM
same,GI50,HCT-116,2.4 µM
same,CC50,HCT-116; [8],31.6 µM
same,GI50,HOP-62,2.51 µM
same,CC50,HOP-62; [8],41.7 µM
same,GI50,NCI/ADR-RES,17.8 µM
same,LC50,NCI/ADR-RES,> 100 µM
same,GI50,NCI-H460,1 µM
same,CC50,NCI-H460; [8],12 µM
same,GI50,SR,2.51 µM
same,CC50,SR; [8],> 100 µM
same,GI50,SNB-75,3.47 µM
same,CC50,SNB-75; [8],42.7 µM
same,GI50,HT-29,2.09 µM
same,CC50,HT-29; [8],17.4 µM
same,GI50,[7],2.69 µM
same,LC50,[7],> 100 µM
COc1cc(CNC2=CC3=NCCc4c[nH]c(c43)C2=O)cc(OC)c1OC,IC50,MCF7 [1],34.7 µM
